This is an account of results in patent US12016334B2, “Composition comprising sulphated galactose, and implementations thereof” (priority 2018, dated 2024).

This assay deals with Alternaria solani. Kind of assay: Detached tomato leaf antifungal assay. Format: in vivo. Particulars: for size of the fungus induced damage compared to untreated control: 80 mg/L spray.

For `O=C[C@H](O)[C@@H](O)[C@@H](OS(=O)(=O)O)[C@H](O)CO` [Gal-S, D-galactose-4-O-sulphate], the “size of the fungus induced damage compared to untreated control” value is “significant reduction in the size of the fungus induced damage”. Moreover, the “fungal lesion size compared to untreated control” value (8 mg/L spray) is on record as “does not show significant reduction in the fungal lesion size”.
For `O=Cc1ccc(CO)o1` [HMF, Hydroxymethylfurfural], the “size of the fungus induced damage compared to untreated control” value is “significant reduction in the size of the fungus induced damage”.
